Biological target: T1, cell surface folate receptors on folate receptor positive M109 cells (Mus musculus, UniProt P35846)
T1 construct: cell surface folate receptors on folate receptor positive M109 cells in culture; endogenous in cells; host or cells: M109 cells
Experiment: Fluorescence measurement of binding to cell surface folate receptors on M109 cells in culture
Format: cell-based
Protocol: TEXAS RED C2-maleimide (Molecular Probes, Eugene, Oreg.) was dissolved in dimethyl sulfoxide (DMSO) (1 mg in 200 μl DMSO). A 1.4 molar equivalent (1 mg) of Folate-Cys was added to the solution and mixed for 4 hours at room temperature. Folate-Cys-TEXAS RED (Folate-TEXAS RED) was purified by reverse-phase HPLC on a C18 column at a flow rate of 1 ml/min. The mobile phase, consisting of 10 mM NH4HCO3 buffer, pH 7.0 (eluent A) and acetonitrile (eluent B), was maintained at a 99:1 A:B ratio for the first five minutes and then changed to 70:30 A:B in a linear gradient over the next 30 minutes followed by a 1:99 A:B linear gradient over the last 15 minutes. Folate-Cys-TEXAS RED eluted as two isomer peaks at 44.5 and 45.8 minutes. The product was confirmed by mass spectroscopy and the biologic activity was confirmed by fluorescence measurement of its binding to cell surface folate receptors on folate receptor positive M109 cells in culture.
ALEXAFLUOR 488 C5-maleimide (Molecular Probes, Eugene, Oreg.) was dissolved in dimethyl sulfoxide (DMSO) (0.5 mg in 50 μl DMSO). A 1.5 molar equivalent (0.57 mg) of Folate-Cys was added to the solution and mixed for 4 hours at room temperature. […] The product was confirmed by mass spectroscopy and the biologic activity was confirmed by fluorescence measurement of its binding to cell surface folate receptors on folate receptor positive M109 cells in culture.

T1 sequence (P35846 25-232): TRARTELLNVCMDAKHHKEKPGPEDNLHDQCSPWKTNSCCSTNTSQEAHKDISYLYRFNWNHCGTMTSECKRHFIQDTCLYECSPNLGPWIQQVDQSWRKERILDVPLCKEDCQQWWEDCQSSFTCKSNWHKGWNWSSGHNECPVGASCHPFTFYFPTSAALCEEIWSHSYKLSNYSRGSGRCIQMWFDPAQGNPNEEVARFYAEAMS

SMILES	biologic activity: binding to cell surface folate receptors
N=c1ccc2c(-c3ccc(C(=O)NCCCCCN4C(=O)CC(SCC(NC(=O)CCC(NC(=O)c5ccc(NCc6cnc7nc(N)[nH]c(=O)c7n6)cc5)C(=O)O)C(=O)O)C4=O)cc3C(=O)O)c3ccc(N)c(S(=O)(=O)O)c3oc-2c1S(=O)(=O)O (centres unmarked) [Folate-Cys-ALEXAFLUOR 488]	confirmed
Nc1nc2ncc(CNc3ccc(C(=O)NC(CCC(=O)NC(CSC4CC(=O)N(CCNS(=O)(=O)c5ccc(C6=c7cc8c9c(c7Oc7c6cc6c%10c7CCCN%10CCC6)CCC[N+]=9CCC8)c(S(=O)(=O)O)c5)C4=O)C(=O)O)C(=O)O)cc3)nc2c(=O)[nH]1 (centres unmarked) [Folate-Cys-TEXAS RED]	confirmed
